In ChEMBL document CHEMBL1124667 (1989):

Legend:
MCF7 [1] = test: Growth inhibitory activity against MCF-7 human breast tumor cell line at a concentration of 10e-6 M in vitro.; assay type: functional; set-up: scale not given: the % may be the effect or the level left
MCF7 [2] = test: Growth inhibitory activity against MCF-7 human breast tumor cell line at a concentration of 10e-7 M in vitro.; assay type: functional; set-up: scale not given: the % may be the effect or the level left
MCF7 [3] = test: Growth inhibitory activity against MCF-7 human breast tumor cell line at a concentration of 10e-8 M in vitro.; assay type: functional; set-up: scale not given: the % may be the effect or the level left
[4] = target: Estrogen receptor (Homo sapiens) (UniProt Q92731+P03372); test: Relative binding affinity against estrogen receptors in MCF-7 whole cells; assay type: cell-based; details: MCF7

relative binding affinity (RBA) [4] | Structure (SMILES) | Activity (MCF7 [1]) [%] | Activity (MCF7 [2]) [%] | Activity (MCF7 [3]) [%]
 | CC/C(=C(\c1ccc(I)cc1)c1ccc(OCCN(CC)CC)cc1)c1ccccc1 | 23 | 35 | 101
 | CC/C(=C(\c1ccc(C=O)cc1)c1ccc(OCCN(C)C)cc1)c1ccccc1 | 42 | 38 | 62
 | CC/C(=C(/c1ccc(OCCN(C)C)cc1)c1ccc(C2CO2)cc1)c1ccccc1 (centres undefined) | 19 | 42 | 113
 | CC/C(=C(/c1ccc(OCCN(C)C)cc1)c1ccc(SC)cc1)c1ccccc1 | 54 | 66 | 154
 | CCC(=C(c1ccc(O)cc1)c1ccc(OCCN(C)C)cc1)c1ccccc1 | 15 | 38 | 48
 | CC/C(=C(\c1ccc(I)cc1)c1ccc(OCCN(C)C)cc1)c1ccccc1 | 26 | 42 | 115
 | CC/C(=C(\c1ccc(OCCN(C)C)cc1)c1ccc(S(C)(=O)=O)cc1)c1ccccc1 | 140 | 114 | 88
 | CC/C(=C(\c1ccc(Br)cc1)c1ccc(OCCN(C)C)cc1)c1ccccc1 | 63 | 101 | 130
 | CC/C(=C(\c1ccc(OCCN(C)C)cc1)c1ccc(SC)cc1)c1ccccc1 | 69 | 117 | 102
 | CC/C(=C(/c1ccc(OCCN(C)C)cc1)c1cccc(I)c1)c1ccccc1 | 27 | 68 | 100
 | CC/C(=C(\c1ccc(S)cc1)c1ccc(OCCN(C)C)cc1)c1ccccc1 | 147 | 110 | 94
 | CC/C(=C(/c1ccc(OCCN(C)C)cc1)c1ccc([S+](C)[O-])cc1)c1ccccc1 (centres undefined) | 238 | 237 | 177
 | CC/C(=C(/c1ccc(OCCN(C)C)cc1)c1ccc(S(C)(=O)=O)cc1)c1ccccc1 | 29 | 75 | 125
 | CC/C(=C(/c1ccc(I)cc1)c1ccc(OCCN(C)C)cc1)c1ccccc1 | 120 | 126 | 99
1.5 | CC/C(=C(\c1ccc(CO)cc1)c1ccc(OCCN(C)C)cc1)c1ccccc1 | 150 | 145 | 164
 | CC/C(=C(\c1ccc(I)cc1)c1ccc(OCCN2CCCC2)cc1)c1ccccc1 [IDOXIFENE] | 20 | 27 | 84
 | CC/C(=C(\c1ccccc1)c1ccc(OCCN(C)C)cc1)c1ccccc1 [TAMOXIFEN] | 70 | 100 | 119
 | CC/C(=C(\c1ccc(Cl)cc1)c1ccc(OCCN(C)C)cc1)c1ccccc1 | 56 | 119 | 116
 | CC/C(=C(/c1ccccc1)c1ccc(OCCN(C)C)cc1)c1ccccc1 | 137 | 140 | 135
 | CC/C(=C(/c1ccc(Br)cc1)c1ccc(OCCN(C)C)cc1)c1ccccc1 | 174 | 163 | 110
 | CC/C(=C(\c1ccc(OCCN(C)C)cc1)c1ccc([S+](C)[O-])cc1)c1ccccc1 (centres undefined) | 67 | 135 | 112
